{"source": "patent US11160796B2", "about": "“Anti-androgens for the treatment of non-metastatic castration-resistant prostate cancer” (priority 2017, dated 2021)", "key": {"CYP2B6 and CYP2C8": {"test_system": "CYP2B6 and CYP2C8", "assay": "In vitro CYP inhibition: CYP2B6 and CYP2C8"}, "in vivo": {"assay": "in vivo", "conditions": "dog", "text": "Single-dose and repeat-dose toxicology studies up to 13 weeks of dosing have been conducted in male Sprague Dawley (SD) rats and male Beagle dogs (repeat-dose studies only)."}, "[1]": {"assay": "Drug-drug interaction studies: effect of other medications on apalutamide", "type": "in vivo, human"}, "CYP2C8": {"molecular_target": "T1, CYP2C8 (Homo sapiens, UniProt P10632)", "T1 construct": "from tissue; host or cells: human subjects, in vivo (clinical pharmacology)", "T1 sequence (P10632 1-490)": "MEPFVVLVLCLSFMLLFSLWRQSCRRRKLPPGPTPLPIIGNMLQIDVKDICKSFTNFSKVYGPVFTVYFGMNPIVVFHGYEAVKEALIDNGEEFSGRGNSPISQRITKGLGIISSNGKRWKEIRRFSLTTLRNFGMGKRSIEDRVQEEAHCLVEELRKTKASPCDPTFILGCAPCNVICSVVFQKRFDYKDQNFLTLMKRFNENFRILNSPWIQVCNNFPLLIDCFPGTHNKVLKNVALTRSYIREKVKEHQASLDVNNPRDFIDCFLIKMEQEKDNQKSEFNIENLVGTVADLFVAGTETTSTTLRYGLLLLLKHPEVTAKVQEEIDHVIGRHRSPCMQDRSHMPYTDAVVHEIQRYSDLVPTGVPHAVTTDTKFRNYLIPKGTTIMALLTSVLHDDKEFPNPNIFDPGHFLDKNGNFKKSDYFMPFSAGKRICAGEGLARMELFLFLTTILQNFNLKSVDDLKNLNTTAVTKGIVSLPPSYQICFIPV", "assay": "Contribution of CYP2C8 in the metabolism of apalutamide", "type": "in vivo", "conditions": "estimated"}, "[2]": {"test_system": "castration-resistant LNCaP/AR-Luc xenograft model", "assay": "Murine tumor (xenograft) models of CRPC", "type": "in vivo", "conditions": "for tumor cell proliferation and apoptosis in vivo: CRPC / mouse xenograft models of prostate cancer"}, "[3]": {"test_system": "CYP2C9, CYP2C19, and CYP3A4", "assay": "In vitro CYP inhibition: CYP2C9, CYP2C19, CYP3A4"}, "LNCaP/AR cells": {"test_system": "LNCaP/AR cells", "conditions": "literature; cited from earlier work"}, "[4]": {"molecular_target": "T2, organic anion transporter 1 (OAT1) (Homo sapiens, UniProt Q4U2R8)", "T2 sequence (Q4U2R8 1-563)": "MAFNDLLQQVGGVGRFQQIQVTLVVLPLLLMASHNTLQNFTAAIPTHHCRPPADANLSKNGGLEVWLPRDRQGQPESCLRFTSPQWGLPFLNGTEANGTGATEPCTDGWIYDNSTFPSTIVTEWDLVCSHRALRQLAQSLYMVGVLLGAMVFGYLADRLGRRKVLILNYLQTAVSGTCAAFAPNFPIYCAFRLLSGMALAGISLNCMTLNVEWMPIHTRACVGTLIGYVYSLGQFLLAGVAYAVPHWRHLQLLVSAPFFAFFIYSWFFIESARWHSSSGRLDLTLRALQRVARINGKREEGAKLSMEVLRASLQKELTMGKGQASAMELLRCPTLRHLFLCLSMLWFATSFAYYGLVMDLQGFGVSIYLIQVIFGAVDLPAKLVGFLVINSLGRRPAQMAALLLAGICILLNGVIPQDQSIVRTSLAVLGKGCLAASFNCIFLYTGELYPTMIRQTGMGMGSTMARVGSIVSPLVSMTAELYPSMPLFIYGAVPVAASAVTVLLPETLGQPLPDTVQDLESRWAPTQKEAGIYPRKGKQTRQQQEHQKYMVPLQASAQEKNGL", "assay": "In vitro transporter inhibition: OAT1"}, "P-gp": {"molecular_target": "P-gp (Homo sapiens, UniProt P08183)", "sequence (P08183 whole entry)": "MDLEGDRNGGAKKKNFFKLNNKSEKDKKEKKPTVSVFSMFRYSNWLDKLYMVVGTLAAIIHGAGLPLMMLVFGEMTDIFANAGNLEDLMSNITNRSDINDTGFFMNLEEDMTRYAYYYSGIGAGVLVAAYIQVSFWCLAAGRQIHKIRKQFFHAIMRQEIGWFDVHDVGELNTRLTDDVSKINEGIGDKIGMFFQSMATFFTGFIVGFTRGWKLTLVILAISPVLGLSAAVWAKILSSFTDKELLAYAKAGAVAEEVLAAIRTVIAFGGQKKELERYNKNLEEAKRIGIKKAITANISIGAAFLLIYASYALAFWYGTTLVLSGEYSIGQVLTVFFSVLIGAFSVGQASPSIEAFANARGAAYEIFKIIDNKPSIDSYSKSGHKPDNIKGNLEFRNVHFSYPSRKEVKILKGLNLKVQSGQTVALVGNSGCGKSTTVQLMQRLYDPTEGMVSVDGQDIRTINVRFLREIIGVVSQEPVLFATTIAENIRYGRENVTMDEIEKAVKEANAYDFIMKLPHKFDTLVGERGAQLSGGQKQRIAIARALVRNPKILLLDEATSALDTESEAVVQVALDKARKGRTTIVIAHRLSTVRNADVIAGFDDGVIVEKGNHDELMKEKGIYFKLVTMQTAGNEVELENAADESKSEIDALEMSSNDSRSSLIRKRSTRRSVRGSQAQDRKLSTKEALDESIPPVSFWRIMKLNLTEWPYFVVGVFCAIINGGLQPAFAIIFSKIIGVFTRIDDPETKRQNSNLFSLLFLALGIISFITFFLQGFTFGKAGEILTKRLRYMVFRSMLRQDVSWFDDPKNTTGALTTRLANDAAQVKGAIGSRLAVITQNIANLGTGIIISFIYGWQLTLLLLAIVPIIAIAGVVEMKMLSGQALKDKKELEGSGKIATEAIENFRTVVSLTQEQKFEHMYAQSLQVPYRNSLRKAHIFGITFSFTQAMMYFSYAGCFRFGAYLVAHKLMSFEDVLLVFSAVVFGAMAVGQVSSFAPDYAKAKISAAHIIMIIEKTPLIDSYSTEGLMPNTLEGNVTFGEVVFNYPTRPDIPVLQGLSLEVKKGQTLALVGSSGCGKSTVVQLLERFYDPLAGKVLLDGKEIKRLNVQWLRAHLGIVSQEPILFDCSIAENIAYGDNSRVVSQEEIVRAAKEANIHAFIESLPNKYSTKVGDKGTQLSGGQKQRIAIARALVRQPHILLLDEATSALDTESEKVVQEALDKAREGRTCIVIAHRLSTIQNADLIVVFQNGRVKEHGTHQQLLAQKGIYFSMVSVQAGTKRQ", "assay": "In vitro transporter substrate assessment: P-gp"}, "human CYP2B6 and CYP3A4": {"test_system": "human CYP2B6 and CYP3A4", "conditions": "hepatocytes"}, "[5]": {"assay": "In vivo rat (bone marrow) micronucleus assay"}}, "note": "“Also recorded” adds a separate entry of the source.", "data": [{"molecule": "CNC(=O)c1ccc(N2C(=S)N(c3cnc(C#N)c(C(F)(F)F)c3)C(=O)C23CCC3)cc1F", "note": "[apalutamide, 4-[7-(6-cyano-5-trifluoromethylpyridin-3-yl)-8-oxo-6-thioxo-5,7-diazaspiro[3.4]oct-5-yl]-2-fluoro-N-methylbenzamide]", "values": [{"measurement": "inhibition of CYP2B6 and CYP2C8", "setting": "CYP2B6 and CYP2C8", "value": "moderate inhibitors"}, {"measurement": "increases in cholesterol compared to controls", "setting": "in vivo", "value": "up to 50%"}, {"measurement": "NOAEL at 13 weeks", "setting": "in vivo; male, Beagle", "value": 5, "unit": "mg/kg/day"}, {"measurement": "NOAEL at 28 days", "setting": "in vivo; male, Beagle", "value": 10, "unit": "mg/kg/day"}, {"measurement": "dose at which seizures necessitating humane euthanasia occurred", "setting": "in vivo; male, Beagle", "value": "≥ 25", "unit": "mg/kg/day"}, {"measurement": "dose with reproductive system findings", "setting": "in vivo; male, Beagle", "value": "> 2.5", "unit": "mg/kg/day"}, {"measurement": "AUC(0-t)", "setting": "in vivo; male, Beagle, 10 mg/kg/day", "value": 290, "unit": "µg·h/mL"}, {"measurement": "Cmax", "setting": "in vivo; male, Beagle, 10 mg/kg/day", "value": 13200, "unit": "ng/mL"}, {"measurement": "increase in AUC of apalutamide", "setting": "[1]; 240 mg single dose with gemfibrozil", "value": 68, "unit": "%"}, {"measurement": "decrease in Cmax of apalutamide", "setting": "[1]; 240 mg single dose with gemfibrozil (strong CYP2C8 inhibitor)", "value": 21, "unit": "%"}, {"measurement": "AUC of apalutamide", "setting": "[1]; 240 mg single dose with itraconazole", "value": "similar"}, {"measurement": "decrease in Cmax of apalutamide", "setting": "[1]; 240 mg single dose with itraconazole (strong CYP3A4 inhibitor)", "value": 22, "unit": "%"}, {"measurement": "contribution of CYP2C8 in the metabolism", "setting": "CYP2C8; at steady-state", "value": 40, "unit": "%"}, {"measurement": "contribution of CYP2C8 in the metabolism", "setting": "CYP2C8; following single dose", "value": 58, "unit": "%"}, {"measurement": "tumor cell proliferation and apoptosis in vivo", "setting": "[2]", "value": "reduce proliferation of CRPC cells as well as increase apoptosis and necrosis"}, {"measurement": "tumor cell proliferation and apoptosis in vivo", "setting": "[2]; listed as Apalutamide", "value": "decreased tumor cell proliferation and increased apoptosis leading to decreased tumor volume"}, {"measurement": "tumor growth inhibition and tumor regression", "setting": "[2]; murine tumor models of CRPC", "value": "dose-dependent tumor growth inhibition and tumor regression that were superior to bicalutamide"}, {"measurement": "inhibition of CYP2C9, CYP2C19, and CYP3A4", "setting": "[3]", "value": "weak inhibitors"}, {"measurement": "agonist activity in the context of AR overexpression", "setting": "LNCaP/AR cells", "value": "lacks the partial agonist activity"}, {"measurement": "inhibition of OAT1", "setting": "[4]", "value": "No in vitro inhibition; also recorded: do not inhibit"}, {"measurement": "substrate for P-gp", "setting": "P-gp", "value": "substrates for P-gp"}, {"measurement": "CYP3A4 and CYP2B6 induction", "setting": "human CYP2B6 and CYP3A4", "value": "moderate to strong CYP3A4 and CYP2B6 inducers"}, {"measurement": "genotoxicity, in vivo rat micronucleus assay", "setting": "[5]", "value": "not genotoxic"}]}]}
